Laboratory results reported in PubChem BioAssay AID179 (DTP/NCI, 2004).
Where “and” joins values, the source holds several entries; their conditions need not be identical. Equal entries are not always repeated. Calls of active or inactive are those of the source.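 The calls were made as follows: active = compounds giving half or more protection of infected cells from virus-caused growth loss, again on retest; inactive = the rest.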 Where a SMILES comes first, the peptide text is derived from it.

System: CEM cells HIV-1 protection, formazan growth assay
Assay: NCI AIDS Antiviral Assay
Settings: for IC50: measured here: growth of uninfected CEM cells
Summary of the method: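 Steps: treat uninfected and HIV-1-infected human CEM cells at five drug levels; quantify growth by soluble formazan; retest any compound reaching 50% protection; classify actives from the retest.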

Row | Compound | EC50 | IC50 | outcome
1 | COC(=O)C(/C(=N/NC(=O)c1ccncc1)C(=O)Nc1ccccc1OC)c1nc2ccc(Cl)cc2[nH]c1=O (configuration not stated) | > 91.2 µM | > 91.2 µM | 
2 | COc1ccc(CCNC(=S)/N=C\C2=C(O)c3ccccc3C2=O)cc1OC | > 200 µM | > 200 µM | 
3 | CC(=O)C(=Cc1cccc(C#N)c1)C(C)=O | > 63.1 µM | 34.7 µM | 
4 | COc1ccccc1C(=O)NCC1CCCN2CCCCC12 (configuration not stated) | > 200 µM | > 200 µM | 
5 | CCOC(=O)C1=NN(c2ccccc2)C(=O)/C1=C\N1CCNC1=S | > 135 µM | > 100 µM | 
6 | NC(=O)CCC(NC(=O)C(F)(F)F)C(=O)O (configuration not stated) |  |  | inactive
7 | O=C(O)c1cc(=O)[nH]c(O)c1N=Nc1ccc(/C=C/c2ccc(N=Nc3c(C(=O)O)cc(=O)[nH]c3O)cc2S(=O)(=O)O)c(S(=O)(=O)O)c1 | > 200 µM | 102 µM | 
8 | CCOc1ccc(NCc2cc(OC)c(OC)c(OC)c2)cc1 | > 158 µM | 0.324 µM and 0.339 µM | 
9 | Oc1cc(O)c(Oc2cccc(O)c2O)c(O)c1 | > 1000 µM | 38.9 µM | 
10 | Cc1cn(COCC[Se]c2ccccc2)c(=O)[nH]c1=O | 186 µM | > 200 µM | 
11 | CN(Cc1cnc2nc(N)nc(N)c2n1)c1ccc(C(=O)NC(CCC(=O)NC(P(=O)(O)O)P(=O)(O)O)C(=O)O)cc1 (configuration not stated) | > 200 µM | 11.2 µM | 
12 | NCC1OC(OC2C(CO)OC(OC3C(O)C(N)CC(N)C3OC3OC(CN)C(O)C(O)C3N)C2O)C(N)C(O)C1O (configuration not stated) (tested in a mixture with another compound) | > 135 µM | 9.33 µM | 
13 | Cc1c2ccccc2nc(CSc2ccc(Cl)cc2)[n+]1[O-] | 45.7 µM | 105 µM | 
14 | COc1ccc(/C=N/Nc2ccc(S(=O)(=O)O)cc2)cc1 | > 759 µM | 331 µM | 
15 | CCN(CC)C1=Nc2ccccc2N(c2ccccc2)C(=S)C1 | > 200 µM | 85.1 µM | 
16 | CCCCCCCCCCCCC(Br)C(=O)OCC1OC(n2cc(C)c(=O)[nH]c2=O)CC1O (configuration not stated) | > 200 µM |  | 
17 | CC(C)(C)OC(=O)NCC(=O)NC1CC=CCC1NC(=O)CNC(=O)OC(C)(C)C (configuration not stated) | > 200 µM | > 200 µM | 
18 | O=C(Nc1ccc(Cl)c(Cl)c1)N1c2ccccc2Sc2ccccc21 |  |  | inactive
19 | O=C1NC(=O)C(=CN2C(=O)/C(=C/c3ccc([N+](=O)[O-])cc3)SC2=S)C(=O)N1 | > 200 µM | 115 µM | 
20 | c1cc2nnc1SCCCSc1ccc(nn1)SCCCSc1ccc(nn1)SCCCS2 | > 100 µM | > 100 µM | 
21 | CNc1ccc(N=O)cc1 | > 200 µM | 1.07 µM | 

Row | Compound | EC50 | IC50 | outcome
22 | C[n+]1c2ccccc2n2c3ccccc3c(NCCc3ccccn3)c(C#N)c21 | > 20 µM | 1.29 µM | 
23 | COc1cc2c(cc1OC)C(=O)C(C1=C(SC(=N)N)C(=O)c3cc(OC)c(OC)cc31)C2 (configuration not stated) | > 28.2 µM | > 28.2 µM | 
24 | CN(CCc1ccccn1)C(=S)N/N=C(\c1ccccc1)c1ccccn1 | > 0.2 µM | 0.0132 µM | 
25 | CCCCCCCCCCCCCCCCCCNc1ccn(C2OC(CO)C(OP(=O)(O)OCC3CCC(n4ccc(N)nc4=O)O3)C2O)c(=O)n1 (configuration not stated) | 1.1 µM | 15.8 µM | 
26 | CC1=C(C(=O)Nc2ccccc2)C(c2ccccc2Cl)C(C(=O)Nc2ccccc2)=C(C)N1 |  |  | inactive
27 | CN1C(=O)C2CC(O)C(SC3CC4C(=O)N(C)C(=O)C4CC3O)CC2C1=O (configuration not stated) | > 200 µM | > 200 µM | 
28 | CNS(=O)(=O)NNS(=O)(=O)c1ccc(Cl)cc1 | > 120 µM | > 120 µM | 
29 | Cc1ccc2c(c1)NC(=O)C(N=[N+]=[N-])(c1ccccc1)C2=O (configuration not stated) | > 200 µM | 49 µM | 
30 | N#C/C(=C\c1c(Cl)cccc1Cl)c1nc(-c2ccc(Cl)cc2)cs1 | > 200 µM | 72.4 µM | 
31 | COC12OCCN(C)C1=CC(=O)C1=NNC(C)C12 (configuration not stated) |  |  | inactive
32 | COc1ccc(/C=C2\SC(=S)NC2=O)cc1 | > 28.8 µM | > 28.8 µM | 
33 | O=C(/C=C\c1ccsc1)c1ccccc1 | > 200 µM | 3.24 µM | 
34 | O=C1CC(C2(c3ccc4c(c3)OCO4)SCCCS2)CO1 (configuration not stated) | > 155 µM | > 155 µM | 
35 | CCN(CC)Cc1ccccc1CC(=O)N1c2ccccc2C(=O)Nc2cccnc21 | > 200 µM | > 200 µM | 
36 | O=[N+]([O-])c1cccc2nccc(NCC(O)CO)c12 (configuration not stated) | > 200 µM | 6.17 µM | 
37 | Cc1cc(C)c2c(=N)c3ccccc3n(CCCCCCn3c4ccccc4c(=N)c4c(C)cc(C)nc43)c2n1 | > 2 µM | 0.302 µM | 
38 | CC(=O)OC1C=C(C=O)C(O)(C=O)C2(C)CCCC(C)(C)C12 (configuration not stated) | > 200 µM | 8.13 µM | 
39 | CCCCOC(=O)/C(O)=C(\C=NC(=S)c1cccnc1)C(=O)C=C(C)C | > 200 µM | 41.7 µM | 
40 | CCOC(=O)CCN1C(=O)C(=O)N(c2ccc(OC)cc2)C1=S | > 200 µM | 31.6 µM | 
41 | CC[C@H]1CN(C)[C@H]2Cc3c([nH]c4ccccc34)C(=O)C[C@H]1C2C(=O)OC (some centres not stated) | > 129 µM | > 129 µM | 
42 | O=C1/C=C(/c2ccc(O)cc2)[C@H](O)Cc2ccc(OC3OC(CO)C(O)C(O)C3O)cc2O1 (some centres not stated) (tested in a mixture with another compound) | > 251 µM | > 251 µM | 

Row | Compound | EC50 | IC50 | outcome
43 | CC(=O)Nc1ccc(S(=O)(=O)n2oc(=O)c(-c3ccccc3)c2N)cc1 | > 200 µM | 105 µM | 
44 | N#CC(C(=O)CCC(=O)Nc1ccc(Cl)c(Cl)c1)c1ccccc1 (configuration not stated) | > 692 µM | > 692 µM | 
45 | Cc1ccc(C(=O)N2CCN(C(=O)c3ccc(C)cc3)c3ccccc32)cc1 | > 10.2 µM | 1.82 µM | 
46 | COc1ccc(C(=O)C(c2ccc(OC)cc2)C2C(=O)Oc3ccccc32)cc1 (configuration not stated) | > 34.7 µM | > 34.7 µM | 
47 | Nc1nc(Cl)cc(OCC2(O)CC(COC(=O)c3ccccc3)C2)n1 (configuration not stated) | > 200 µM | 60.3 µM | 
48 | CNC=O | > 200 µM | > 200 µM | 
49 | Cc1ccc(NC(=O)C(=O)C(C2C(C)CC(=O)C2CC(=O)O)[N+](=O)[O-])cc1 (configuration not stated) |  |  | inactive
50 | CCOC(=O)c1cnc(NC)n2nc(-c3ccccc3)nc12 |  |  | inactive
51 | CC(C)CC(N)C(=O)NC(CC(=O)O)C(=O)NC(CCCCN)C(=O)NC(C)C(=O)NC(CO)C(=O)NC(Cc1ccc(O)cc1)C(=O)NC(CO)C(=O)NC(C(=O)NC(CC(N)=O)C(=O)O)C(C)O (configuration not stated) (H-LDKASYSTN-OH; configuration not given here) | > 50.1 µM | > 50.1 µM | 
52 | CC(=O)Nc1ccc(/C=c2\sc3nnc(/C=C/c4ccccc4)n3c2=O)cc1 | > 93.3 µM | > 93.3 µM | 
53 | CC(C)(C)c1c(C(C)(C)C)c(=O)c1=O | > 200 µM | > 200 µM | 
54 | COc1ccc2nc3cc([N+](=O)[O-])ccc3c(Nc3ccc(S(=O)(=O)Nc4ncccn4)cc3)c2c1 | > 200 µM | 102 µM | 
55 | CCOC(=O)c1c[nH]c(C(=O)C=[N+]=[N-])c1C1CCN(CC)C1=S (configuration not stated) | > 200 µM | 138 µM | 
56 | Nc1ccc(C2CCC(C(=O)O)N2)cc1 (configuration not stated) | > 200 µM | > 200 µM | 
57 | O=C(Nc1ccccc1)c1cc2c(cc1Cl)Sc1nccn1S2(=O)=O | > 200 µM | > 100 µM | 
58 | Oc1c2c(c(O)c3ccccc13)C1(N=N2)c2ccccc2Oc2ccccc21 |  |  | inactive
59 | Cn1cc(NC(=O)Nc2cc(C(=O)Nc3cc(C(=O)Nc4cc(P(=O)(O)O)c5cccc(P(=O)(O)O)c5c4)n(C)c3)n(C)c2)cc1C(=O)Nc1cc(C(=O)Nc2cc(P(=O)(O)O)c3cccc(P(=O)(O)O)c3c2)n(C)c1 | 89.1 µM | 126 µM | 
60 | Fc1ccc(CSc2cnnc(SCc3ccc(F)cc3)c2SCc2ccc(F)cc2)cc1 | > 200 µM | 39.8 µM | 
61 | Nc1nc(Cl)cc(N=Nc2ccccc2)n1 | > 200 µM | 11.5 µM | 
62 | CC1(C)c2ccccc2N2O[C@@H]3C(=O)N(c4ccccc4)C(=O)[C@@H]3C21c1ccccc1 (some centres not stated) | > 36.3 µM | > 36.3 µM | 
63 | Cc1ccc(S(=O)C[C@](NC(=O)OCc2ccccc2)(Sc2ccccc2)C(F)F)cc1 (some centres not stated) | > 200 µM | 10.7 µM | 

Row | Compound | EC50 | IC50 | outcome
64 | Clc1ccc2c(c1)[nH]c1c2nc2ccccn21 | > 30.2 µM | 29.5 µM and > 25.7 µM | 
65 | COc1cccc(C2=NC(C(C)C)CO2)c1 (configuration not stated) | > 229 µM | > 229 µM | 
66 | Cn1c(-c2cccs2)cc(-c2cccs2)c1-c1cccs1 | > 200 µM | 33.9 µM | 
67 | CCCCCCCCCCCCCCCCCCCCOC1OC(COC(C)=O)C(OC(C)=O)C(OC(C)=O)C1OC(C)=O (configuration not stated) | > 35.5 µM | > 35.5 µM | 
68 | CCC1CC2CN3CCc4c([nH]c5ccccc45)C(C(=O)OC)(C2)C13 (configuration not stated) |  |  | inactive
69 | O=C(O)/C=C\C(=O)Nc1ccc(SSc2ccc(NC(=O)/C=C\C(=O)O)cc2)cc1 | 182 µM | > 200 µM | 
70 | COc1ccc(/C=C2\SC(=S)N(C=C3C(=O)NC(=S)NC3=O)C2=O)cc1OC | > 200 µM | 29.5 µM | 
71 | CC(=O)OC(Cn1cncn1)(Cn1cncn1)c1ccc(Cl)cc1Cl | > 200 µM | > 200 µM | 
72 | N#Cc1cc([N+](=O)[O-])ccc1NC(=O)C(F)(F)F | > 100 µM | 89.1 µM | 
73 | N#CC12C(=N)CCC1C1CC2C2C3C=CC(C3)C12 (configuration not stated) | > 200 µM | > 200 µM | 
74 | O=C(O)C1CC(C(=O)O)SS1 (configuration not stated) | > 1290 µM | > 1290 µM | 
75 | CCCCCC=C(c1cc(C(=O)OC)c(OC)c(C(F)(F)F)c1)c1cc(C(=O)OC)c(OC)c(C(F)(F)F)c1 | > 200 µM | 105 µM | 
76 | COc1ccc(CC2=CC(=O)C(=O)C=C2C)cc1 | > 56.2 µM | 30.2 µM | 
77 | [N-]=[N+]=NC1=NNC2(C(=O)N1)c1ccccc1-c1ccccc12 | > 100 µM | > 100 µM | 
78 | O=C(O)CSc1n[nH]c(-c2ccco2)n1 | > 224 µM | > 224 µM | 
79 | O=C(O)C1=C/C(=C(/c2ccccc2)c2cc(C(=O)O)c(O)c3ccccc23)c2ccccc2C1=O |  |  | inactive
80 | CCCCCCCCSC(=O)n1cc(F)c(=O)[nH]c1=O | > 61.7 µM | > 61.7 µM | 
81 | COC(=O)[C@@H]1C[C@H]([Se]c2ccccc2)CN1S(=O)(=O)c1ccc(C)cc1 |  |  | inactive
82 | COC(=O)[C@]12CSC[C@H]1C[C@H](c1cccc3ccccc13)N2 | > 200 µM | > 200 µM | 
83 | C=C(C)[C@H]1CC(=O)[C@@]2(C)C[C@H]3O[C@]3(C)CC/C=C(\C)CC[C@H]12 | > 200 µM | 55 µM | 
84 | Cc1nnc(Cc2ccccc2)c2n[nH]c(C)c12 | > 398 µM | 110 µM | 
